Like-named read-outs stand apart in the source and are kept apart here.
Assays:
[1] = system: Lepeophtheirus salmonis sea lice on salmon (Salmo salar); assay: Salmon in vivo efficacy trial using in-feed administration; details: 1 mg/kg fish biomass via coated feed for 7 consecutive days; for therapeutic efficacy against juvenile sea lice: day -3 infestation, counted around day 25; for therapeutic efficacy against (pre-)adult sea lice: day -28 infestation, counted around day 8
Description: Commercial fish feed pellets were coated with formulated test compound. As formulation DMSO 5%/fish oil 95% was used. Salmon (Salmo salar) were treated orally with 1 mg/kg fish biomass via coated feed for 7 consecutive days. Salmon of the negative control groups received only feed coated with the excipients of the formulation. Fish of the therapeutic groups were infested with Lepeophtheirus salmonis copepodids twice before treatment (around day −28 and day −3).

[2] = system: Lepeophtheirus salmonis sea lice on salmon (Salmo salar); assay: Salmon in vivo efficacy trial using gavage administration; details: po
Description: Salmon (Salmo salar) were treated once orally by gavage at a dose of 5 mg/kg bodyweight per fish (Day 0). As formulation DMSO 5%/fish oil 95% was used. Salmon of the negative control group received only the excipients of the formulation. The fish were infested with Lepeophtheirus salmonis copepodids twice before treatment (i.e., around day −28 and day −3) and once after treatment (i.e., day 17). […] Around day 28 (end of animal phase), fish were euthanized, and lice on each fish were classified ((pre-)adult or juvenile stage) and counted. […] Efficacy is expressed as a % reduction of sea lice in treated groups versus a control group, using the Abbott's formula.

[3] = system: Mobile stages of sea lice (pre-adults, adults of Lepeophtheirus salmonis); assay: Adult sea lice contact assay; details: assessed after approximately 1 and 24 hours of continuous exposure, read-out: EC50 (sea lice inhibition, dead+damaged sea lice)
Description: Mobile stages of sea lice (i.e., pre-adults, adults of Lepeophtheirus salmonis) were exposed to seawater spiked with declining concentrations of a test compound (dissolved in a PEG sea-water mixture). Sea lice inhibition (% of dead+damaged sea lice) was assessed after approximately 1 and 24 hours of continuous exposure in comparison to a negative (solvent) control group.

[4] = system: Copepodids (juvenile sea lice stage of Lepeophtheirus salmonis); assay: Juvenile sea lice contact assay; details: approximately 24 hours continuous exposure in seawater, read-out: Sea lice inhibition (% of dead+damaged copepodids)
Description: Copepodids (juvenile sea lice stage of Lepeophtheirus salmonis) were exposed to seawater spiked with declining concentrations of a test compound (dissolved in a DMSO sea-water mixture). Sea lice inhibition (% of dead+damaged copepodids) was assessed after approximately 24 hours of continuous exposure. The vitality of used parasites was confirmed in a negative (solvent) control group.

[5] = system: multiresistant Lepeophtheirus salmonis isolate (resistant to azametiphos, emamectin benzoate, deltamethrin), mobile sea lice stages; assay: Sea lice resistance assay, multi-resistant isolate
Description: (§1) A sea lice resistance assay was carried out using mobile sea lice stages (i.e., pre-adults, adults) of several Lepeophtheirus salmonis-isolates with known resistance profiles (i.e., fully susceptible or multiresistant (resistant to azametiphos (OP), emamectin benzoate (ML), deltamethrin (SP)). Sea lice were exposed to seawater spiked with declining concentrations of a test compound (dissolved in a PEG300/sea-water mixture). Sea lice inhibition (% of dead+damaged sea lice) was assessed after approximately 24 and 48 hours of continuous exposure in comparison to a negative (solvent) control group.

[6] = system: fully susceptible Lepeophtheirus salmonis isolate, mobile sea lice stages; assay: Sea lice resistance assay, sensitive isolate
Description: as §1

[7] = 168 h, read-out: therapeutic efficacy against (pre-)adult sea lice (% reduction vs control, Abbott's formula), once orally by gavage 5 mg/kg bodyweight, day -28 infestation, counted at day 7
[8] = 672 h, read-out: prophylactic efficacy at re-infestation on Day 17 (% reduction vs control, Abbott's formula), once orally by gavage 5 mg/kg bodyweight, re-infestation day 17, counted around day 28
[9] = 672 h, read-out: therapeutic efficacy against juvenile sea lice (% reduction vs control, Abbott's formula), once orally by gavage 5 mg/kg bodyweight, day -3 infestation, counted around day 28

With `N#CC1(NC(=O)c2cc(NC(=O)[C@H]3[C@H](c4cc(Cl)c(Cl)c(Cl)c4)C3(Cl)Cl)ccc2Cl)CC1` [Compound 1541] the “therapeutic efficacy against juvenile sea lice” value [1] was 100%, the “therapeutic efficacy against (pre-)adult sea lice” value [1] was 100% and the “prophylactic efficacy against re-infestation after treatment (D14)” value [1] was 100%. For the same compound, the “prophylactic efficacy against re-infestation after treatment (D28)” value [1] was 100%, the inhibition in vivo at 5 mg/kg [2, 7] was 80% and the inhibition in vivo at 5 mg/kg [2, 8] was 100%. It also gave an inhibition in vivo at 5 mg/kg [2, 9] of 100%, an EC50 [3] of 1 to 10 nM and an inhibition at 0.01 µM ([4]; test concentration 10 nM) of 100%.
For `N#CC1(NC(=O)c2cc(NC(=O)[C@H]3[C@H](c4cc(Cl)cc(Cl)c4)C3(Cl)Cl)ccc2Cl)CC1` [Compound 1590], the “therapeutic efficacy against juvenile sea lice” value [1] was 100%, the “therapeutic efficacy against (pre-)adult sea lice” value [1] was 100% and the “prophylactic efficacy against re-infestation after treatment (D14)” value [1] was 100%. For the same compound, the “prophylactic efficacy against re-infestation after treatment (D28)” value [1] was 79.2%, the inhibition in vivo at 5 mg/kg [2, 7] was 100% and the inhibition in vivo at 5 mg/kg [2, 8] was 80%. For the same compound, the inhibition in vivo at 5 mg/kg [2, 9] was 80%, the EC50 [3] was at most 1 nM and the EC50 ([5]; after 24 hours) was 3.75 ppb. The EC50 ([5]; after 48 hours) was 0.58 ppb, the inhibition at 0.001 µM ([4]; test concentration 1 nM) was 80% and the EC50 ([6]; after 24 hours) was 4.12 ppb. The EC50 ([6]; after 48 hours) was 0.40 ppb.
